Results taken from patent US9051321B2, “Heterocyclic acrylamides and their use as pharmaceuticals” (FAB PHARMA S.A.S, priority 2009, dated 2015).

Experiments:
[1] = tested on: methicillin susceptible Staphylococcus aureus strain ATCC 29213; assay: In vivo antibacterial activity, experimental model of thigh infection in neutropenic mice; settings: 1.5 h after infection, neutropenic female Swiss mice, 20 h
HSA (human albumin) = HSA (human albumin) (Homo sapiens (Human), UniProt P02768); assay: HSA binding analysis using a chiral HSA column; assay type: in vitro ADME; settings: for k′ (capacity factor): 37° C., pH 7.0, k′=(Tr-T0)/T0; for HSA binding Conclusion: classification of AB %
Sequence of HSA (human albumin) (P02768 25-609): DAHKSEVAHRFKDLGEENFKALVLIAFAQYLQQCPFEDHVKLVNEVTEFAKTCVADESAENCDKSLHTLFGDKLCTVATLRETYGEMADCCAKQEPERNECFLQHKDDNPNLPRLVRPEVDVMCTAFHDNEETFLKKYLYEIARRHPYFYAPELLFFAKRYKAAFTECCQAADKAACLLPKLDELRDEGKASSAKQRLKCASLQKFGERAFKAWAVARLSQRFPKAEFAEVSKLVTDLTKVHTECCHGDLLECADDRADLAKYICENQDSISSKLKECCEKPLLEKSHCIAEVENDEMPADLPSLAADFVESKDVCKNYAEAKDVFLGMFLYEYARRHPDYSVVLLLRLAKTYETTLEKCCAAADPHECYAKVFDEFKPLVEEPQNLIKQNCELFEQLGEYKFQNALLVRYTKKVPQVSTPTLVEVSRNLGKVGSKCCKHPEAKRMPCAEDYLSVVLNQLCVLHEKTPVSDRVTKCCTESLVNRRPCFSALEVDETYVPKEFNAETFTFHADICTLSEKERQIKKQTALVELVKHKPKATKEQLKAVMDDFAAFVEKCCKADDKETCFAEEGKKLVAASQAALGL
Text: The test system used in this analysis was an HSA chiral column.
The relationship between the retention time (Tr) and percentage of albumin binding (AB %) depended on the dead time (T0) and the capacity factor (k′): AB %=[k′/(k′+1)]*100 • where k′=(Tr-T0)/T0

E. coli FabI = E. coli FabI (Escherichia coli (strain K12), UniProt P0AEK4); settings: cited from earlier work
Sequence of E. coli FabI (P0AEK4 whole entry): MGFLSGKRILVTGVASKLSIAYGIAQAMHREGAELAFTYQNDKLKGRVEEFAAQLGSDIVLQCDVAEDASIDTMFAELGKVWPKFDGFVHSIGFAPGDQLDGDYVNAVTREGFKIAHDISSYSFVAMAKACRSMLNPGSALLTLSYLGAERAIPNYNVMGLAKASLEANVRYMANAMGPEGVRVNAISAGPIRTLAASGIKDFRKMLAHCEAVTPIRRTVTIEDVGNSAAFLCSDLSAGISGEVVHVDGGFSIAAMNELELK

Structure (SMILES)	in vivo antibacterial activity (bacterial burden in the thigh of infected mice) ([1]; 100 mg/kg orally)	affinity in vitro to human albumin (HSA (human albumin))	k′ (capacity factor) (HSA (human albumin))	HSA binding Conclusion (HSA (human albumin))	in vivo antibacterial activity (bacterial burden in the thigh of infected mice) ([1]; 50 mg/kg subcutaneously)	type of inhibition of E. coli FabI (E. coli FabI)
O=C1CCc2cc(/C=C/C(=O)N3CC(OCc4cccs4)C3)cnc2N1 [Example 12, 6-{(1E)-3-Oxo-3-[3-(2-thienylmethoxy)azetidin-1-yl]prop-1-en-1-yl}-3,4-dihydro-1,8-naphthyridin-2(1H)-one]	able to protect mice against thigh dissemination	low affinity	0.826	Low binding (AB≦75%: Low binding)		
CCCCCOC1CN(C(=O)/C=C/c2cnc3c(c2)CCC(=O)N3)C1 [Example 15, 6-{(1E)-3-Oxo-3-[3-(pentyloxy)azetidin-1-yl]prop-1-en-1-yl}-3,4-dihydro-1,8-naphthyridin-2(1H)-one]					able to protect mice against thigh dissemination	
O=C1CCc2cc(/C=C/C(=O)N3CC(OCCc4cccs4)C3)cnc2N1 [Example 29, (E)-6-(3-Oxo-3-(3-(2-(thiophen-2-yl)ethoxy)azetidin-1-yl)prop-1-enyl)-3,4-dihydro-1,8-naphthyridin-2(1H)-one]		low affinity	1.259	Low binding (AB≦75%: Low binding)		
O=C1CCc2cc(/C=C/C(=O)N3CC(c4cc5ccccc5o4)C3)cnc2N1 [Example 59, (E)-6-(3-(3-(Benzofuran-2-yl)azetidin-1-yl)-3-oxoprop-1-enyl)-3,4-dihydro-1,8-naphthyridin-2(1H)-one]		moderate affinity	4.678	Moderate		
CCCCOC1CN(C(=O)/C=C/c2cnc3c(c2)CC2(CCN(C)CC2)C(=O)N3)C1 [Example 63, (E)-6-(3-(3-Butoxyazetidin-1-yl)-3-oxoprop-1-enyl)-1′-methyl-1H-spiro[[1,8]naphthyridine-3,4′-piperidin]-2(4H)-one]		low affinity	1.288	Low binding (AB≦75%: Low binding)		
Cc1c(C2CN(C(=O)/C=C/c3cnc4c(c3)CCC(=O)N4)C2)oc2ccccc12 [Example 67, (E)-6-(3-(3-(3-Methylbenzofuran-2-yl)azetidin-1-yl)-3-oxoprop-1-enyl)-3,4-dihydro-1,8-naphthyridin-2(1H)-one]		moderate affinity	8.360	Moderate		
Cc1c(C2CN(C(=O)/C=C/c3cnc4c(c3)CC3(CCN(C)CC3)C(=O)N4)C2)oc2ccccc12 [Example 68, (E)-1′-Methyl-6-(3-(3-(3-methylbenzofuran-2-yl)azetidin-1-yl)-3-oxoprop-1-enyl)-1H-spiro[[1,8]naphthyridine-3,4′-piperidin]-2(4H)-one]		high affinity	11.216	High binding (AB≦90%: High binding)		
CN1CCC2(CC1)Cc1cc(/C=C/C(=O)N3CC(c4cc5ccccc5o4)C3)cnc1NC2=O [Example 69, (E)-6-(3-(3-(Benzofuran-2-yl)azetidin-1-yl)-3-oxoprop-1-en-1-yl)-1′-methyl-1H-spiro[[1,8]naphthyridine-3,4′-piperidin]-2(4H)-one]		moderate affinity	7.730	Moderate		
CCCO/N=C(\C)C1CN(C(=O)/C=C/c2cnc3c(c2)CCC(=O)N3)C1 [Example 70, 6-((E)-3-Oxo-3-(3-((E)-1-(propoxyimino)ethyl)azetidin-1-yl)prop-1-enyl)-3,4-dihydro-1,8-naphthyridin-2(1H)-one]		low affinity	0.580	Low binding (AB≦75%: Low binding)		
CCCO/N=C(/C)C1CN(C(=O)/C=C/c2cnc3c(c2)CCC(=O)N3)C1 [Example 71, 6-((E)-3-Oxo-3-(3-((Z)-1-(propoxyimino)ethyl)azetidin-1-yl)prop-1-enyl)-3,4-dihydro-1,8-naphthyridin-2(1H)-one]		low affinity	0.404	Low binding (AB≦75%: Low binding)		
Oc1cc(Cl)ccc1Oc1ccc(Cl)cc1Cl [Triclosan]						reversible, tight-binding inhibitor
